Here are results for eleven molecules from article PMC7915765, “Biochemical Characterization, Specificity and Inhibition Studies of HTLV-1, HTLV-2, and HTLV-3 Proteases” (Life, 2021).

Entries after “also recorded” stand apart in the source; their conditions may differ. *1 amine or outer side, *2 acyl side, *3 side chain or, on linkers, in order; H or OH if unused. Where a SMILES comes first, the peptide text is derived from it. Side-chain parts run from the residue outwards. [ ]: non-standard residue; d: D form. LeuΨ(CH2N)Pro = CC(C)C[C@@H](CN1CCC[C@H]1C(=O)[*:2])N[*:1]; X1 = CC(C)C[C@@H](CN([C@H](C(=O)[*:2])C(C)C)[*:1])N[*:3] Bounds are passed on as bounds.

Experiment [1] concerns the target T1, HTLV-2 PR (Human T-cell leukemia virus 2, UniProt P03363). The experiment is described as follows: biochemical.
Experimental: (§3) The reaction mixtures were prepared to contain 4.8 µL of substrate (in 0.40–0.43 mM final concentration), 0.2 µL of inhibitor, 5 µL of the enzyme, and 10 µL of a 2× incubation buffer. The substrates representing HTLV-2 and HTLV-3 MA/CA cleavage sites were used for HTLV-2 and HTLV-3 PRs, respectively. […] The inhibitors were dissolved in DMSO. Therefore, 0.2 µL of DMSO was added to the control samples.
The target in experiment [2] is T2, HTLV-3 PR (Human T-cell leukemia virus 3, UniProt Q4U0X6). The experiment in a line: biochemical.
T2 sequence (Q4U0X6 431-553): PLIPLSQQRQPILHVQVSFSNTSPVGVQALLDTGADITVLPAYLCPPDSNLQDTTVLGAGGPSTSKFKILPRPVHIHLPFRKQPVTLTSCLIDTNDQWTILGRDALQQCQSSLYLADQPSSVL
Experimental: as §3
The test system of experiment [3] is HTLV-1 PR. The experiment is described as follows: Inhibition study with HIV-1 PIs, HTLV-1 PR. In kind it is biochemical, human T-cell leukemia virus type 1. As to conditions: inhibitor 1 µM final. How it is done: (§1) The IB-268 (KTKVL-r-VVQPK) and IB-269 (APQVL-r-PVMHP) reduced peptide bond (-r-)-containing inhibitors, which were synthesized by Dr. Ivo Blaha (Ferring Leciva, Prague, Czech Republic).
(§2) The reaction mixtures were prepared to contain 4.8 µL of substrate (in 0.40–0.43 mM final concentration), 0.2 µL of inhibitor, 5 µL of the enzyme, and 10 µL of a 2× incubation buffer. The substrates representing HTLV-2 and HTLV-3 MA/CA cleavage sites were used for HTLV-2 and HTLV-3 PRs, respectively. In the case of HIV-1 PIs, we applied 100 µM inhibitor stocks, while 0.5–100 µM stocks of IB-268 and IB-269 were used for screening. The inhibitors were dissolved in DMSO. Therefore, 0.2 µL of DMSO was added to the control samples.

For experiment [4], the target named is T1, HTLV-2 PR. The experiment in a line: Inhibition study with HIV-1 PIs, HTLV-2 PR. The format is biochemical, human T-cell leukemia virus type 2. On the set-up: made in house; host or cells: E. coli BL21(DE3). To be noted: inhibitor 1 µM final; for loss of activity: substrate HTLV-2 MA/CA 0.40–0.43 mM, DMSO control = 100%, n = 2. How it is done:
The inhibitors were dissolved in DMSO.

Experiment [5] concerns the target T2, HTLV-3 PR. The experiment is described as follows: Inhibition study with HIV-1 PIs, HTLV-3 PR. In kind it is biochemical. The arrangement: made in house; host or cells: E. coli BL21(DE3), pET11a. As to conditions: inhibitor 1 µM final; for loss of activity: substrate HTLV-3 MA/CA 0.40–0.43 mM, DMSO control = 100%, n = 2. How it is done:
as §1, §2

The test system of experiment [6] is HTLV-1 PR. The arrangement: method as in 2 sources, ref [41] = [41]; PMID 15158589; doi:10.1016/j.jviromet.2004.03.001; 41. Bagossi P. Kádas J. Miklóssy G. Boross P. Weber I.T. Tözsér J. Development of a microtiter plate fluorescent assay for inhibition studies on the HTLV-1 and HIV-1 proteinases J. Virol. Methods 2004 ||| ref [28] = [28]; PMID 15102858; doi:10.1074/jbc.M401868200; 28. Kádas J. Weber I.T. Bagossi P. Miklóssy G. Boross P. Oroszlan S. Tözsér J. Narrow substrate specificity and sensitivity toward ligand-binding site mutations of human T-cell leukemia virus type 1 p. As to conditions: ref [28]; cited from earlier work.
Text: (a) Comparison of relative activities determined in the presence of HIV-1 PIs applied in a 1-µM final concentration. For control measurements, reaction mixtures contained no inhibitor. Activity determined in the presence of DMSO was considered to be 100%. Error bars represent SD (n = 2). […] We repeated these experiments in our system for HTLV-2 and HTLV-3 PRs.

Experiment [7] concerns ATLL cells. On the set-up: method as in PMID 16174765. To be noted: ATLL cells ex vivo; ref [54]; cited from earlier work.
Experiment [8] has as its system NF-κB transcriptional activation. On the set-up: method as in PMID 18316517. To be noted: ATLL cells; ref [55]; cited from earlier work.
The subject of experiment [9] is HTLV-1 PR. As to conditions: ref [28], cited from earlier work; for activity of mutant (in words): HTLV-1 PR mutants, L57G with HTLV-1 CA/NC substrate (KTKVL*VVQPK); for self-processing: HTLV-1 PR, designed and characterized previously. An excerpt: Table 5 Effects of protease mutations on autoproteolytic activity of HTLV PRs. | column: Self-Processing || We prepared mutant HTLV-2 and HTLV-3 PRs, which contained mutations that were introduced previously to HTLV-1 PR to study its self-processing capability. The rationale behind the former mutation design was to prepare mutant HTLV-1 PRs that contain HIV-1-like residues in the flap region (57th and 59th) or at the active site (37th and 67th). The herein studied enzymes also contained the same mutations in the corresponding positions (Figure 10). All modified residue constitutes a part of substrate binding sites (Table 4).

The conditions of experiment [10]: ASPRV1; ref [51]; cited from earlier work. How it is done: The dependence of enzyme activity on pH was studied in a 4.5–8.0 range. […] Our results imply that the optimal pH of HTLV-1 PR is higher than it was determined previously by Ha et al. (pH 5.2–5.3). The optimal pH determined for HTLV PRs is similar to the slightly acidic pH optimum of retroviral and retroviral-like proteases, including the HIV-1 PR (pH 4.0–6.0 range), the BLV PR (pH 4.0–6.5 range), ...

T1 sequence (P03363 447-571): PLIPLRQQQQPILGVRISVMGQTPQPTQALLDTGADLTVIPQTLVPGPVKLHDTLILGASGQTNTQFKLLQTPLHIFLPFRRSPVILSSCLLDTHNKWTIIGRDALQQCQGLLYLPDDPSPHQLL

`CC(C)C[C@@H](CN[C@H](C(=O)N[C@H](C(=O)N[C@@H](CCC(N)=O)C(=O)N1CCC[C@H]1C(=O)N[C@@H](CCCCN)C(=O)O)C(C)C)C(C)C)NC(=O)[C@@H](NC(=O)[C@H](CCCCN)NC(=O)[C@@H](NC(=O)[C@@H](N)CCCCN)[C@@H](C)O)C(C)C` [IB-268] (H-[X1]([Val-Lys-Thr-Lys])VQPK-OH): the Ki in experiment [1] is 0.037 µM; in [2], 0.214 µM.
Consider `CSCC[C@H](NC(=O)[C@@H](NC(=O)[C@@H]1CCCN1C[C@H](CC(C)C)NC(=O)[C@@H](NC(=O)[C@H](CCC(N)=O)NC(=O)[C@@H]1CCCN1C(=O)[C@H](C)N)C(C)C)C(C)C)C(=O)N[C@@H](Cc1c[nH]cn1)C(=O)N1CCC[C@H]1C(=O)O` [IB-269] (H-APQV[LeuΨ(CH2N)Pro]VMHP-OH), for which the figures for the Ki in [1] and in [2] were 0.012 µM and 0.014 µM, respectively.
Consider `CC(C)CN(C[C@@H](O)[C@H](Cc1ccccc1)NC(=O)O[C@H]1CO[C@H]2OCC[C@H]21)S(=O)(=O)c1ccc(N)cc1` [darunavir], for which the “inhibitory effect (in words)” value in experiment [3], in [4] and in experiment [5] was “highest inhibition” throughout. The loss of activity in [4] and in experiment [5] was < 50% in each case.
For `CC(C)(C)NC(=O)[C@@H]1CN(Cc2cccnc2)CCN1C[C@@H](O)C[C@@H](Cc1ccccc1)C(=O)N[C@H]1c2ccccc2C[C@H]1O` [indinavir], the “inhibitory effect (in words)” value in experiment [3], in experiment [4] and in experiment [5] was “highest inhibition” in each case. In [3] (DMSO control = 100%, n = 2), the “decrease of HTLV-1 PR activity” value is ~ 50%. The “inhibition of wild-type HTLV-1 PR (in words)” value in experiment [6] is reported as “relatively good inhibitors”. Besides, the loss of activity in [4] and in experiment [5] was < 50% throughout.
Take `CC(C)c1nc(CN(C)C(=O)N[C@H](C(=O)N[C@@H](Cc2ccccc2)C[C@H](O)[C@H](Cc2ccccc2)NC(=O)OCc2cncs2)C(C)C)cs1` [ritonavir]: the “inhibitory effect (in words)” value in experiment [3] is “not an effective inhibitor”; in [4], “did not inhibit”; in [5], “did not inhibit”. For the same molecule, in experiment [7], the anti-leukemic activity result is “anti-leukemic activity against ATLL cells ex vivo”. Besides, in [8], the “inhibition of NF-κB transcriptional activation” value was “ritonavir-dependent inhibition of NF-κB transcriptional activation”. Moreover, the loss of activity in [4] and in experiment [5] was < 50% in each case.

B1: HTLV-1 L57G (protein, UniProt P10274 450-574, looked up, variant L57G)
Protease: PVIPLDPARRPVIKAQVDTQTSHPKTIEALLDTGADMTVLPIALFSSNTPLKNTSVGGAGGQTQDHFKLTSLPVLIRLPFRTTPIVLTSCLVDTKNNWAIIGRDALQQCQGVLYLPEAKRPPVIL
modifications: Protease
Turning to B1, the “activity of mutant (in words)” value in experiment [9] was “inefficient enzyme; also recorded: did not hydrolyze the CA/NC cleavage site peptide”.

B2: HTLV-1 M37D (protein, UniProt P10274 450-574, looked up, variant M37D)
Protease: PVIPLDPARRPVIKAQVDTQTSHPKTIEALLDTGADDTVLPIALFSSNTPLKNTSVLGAGGQTQDHFKLTSLPVLIRLPFRTTPIVLTSCLVDTKNNWAIIGRDALQQCQGVLYLPEAKRPPVIL
modifications: Protease
For B2, in experiment [9], the self-processing entry is “no”.

B3: HTLV-1 A59I (protein, UniProt P10274 450-574, looked up, variant A59I)
Protease: PVIPLDPARRPVIKAQVDTQTSHPKTIEALLDTGADMTVLPIALFSSNTPLKNTSVLGIGGQTQDHFKLTSLPVLIRLPFRTTPIVLTSCLVDTKNNWAIIGRDALQQCQGVLYLPEAKRPPVIL
modifications: Protease
Consider B3, for which the “activity of mutant (in words)” value in experiment [9] was “undetectable activity”.

B4: HTLV-1 wild-type: wild-type HTLV-1 PR, self-processing studied previously (protein, UniProt P10274 450-574, looked up)
Protease: PVIPLDPARRPVIKAQVDTQTSHPKTIEALLDTGADMTVLPIALFSSNTPLKNTSVLGAGGQTQDHFKLTSLPVLIRLPFRTTPIVLTSCLVDTKNNWAIIGRDALQQCQGVLYLPEAKRPPVIL
modifications: Protease
notes: wild-type HTLV-1 PR, self-processing studied previously
B4: in [9], the self-processing entry is given as “yes”.

B5: HTLV-1 F67Q (protein, UniProt P10274 450-574, looked up, variant F67Q)
Protease: PVIPLDPARRPVIKAQVDTQTSHPKTIEALLDTGADMTVLPIALFSSNTPLKNTSVLGAGGQTQDHQKLTSLPVLIRLPFRTTPIVLTSCLVDTKNNWAIIGRDALQQCQGVLYLPEAKRPPVIL
modifications: Protease
Turning to B5, in [9], the “activity of mutant (in words)” value was “not tolerated” and the self-processing result is “no”.

B6: ASPRV1: human retroviral-like aspartic protease 1 (literature) (protein, UniProt Q53RT3 191-326, looked up)
Retroviral-like aspartic …: SMGKGYYLKGKIGKVPVRFLVDSGAQVSVVHPNLWEEVTDGDLDTLQPFENVVKVANGAEMKILGVWDTAVSLGKLKLKAQFLVANASAEEAIIGTDVLQDHNAILDFEHRTCTLKGKKFRLLPVGGSLEDEFDLE
For the molecule B6, the pH optimum in experiment [10] is 6.27 ± 0.02.
